For assay [1], the system named is Nav1.5 channel currents (INa, ILATE) in iPS-CMs. The assay can be described thus: Whole-cell patch-clamp of INa and ILATE in iPS-CMs treated with Ang II. The format is cell-based, human. Conditions: 100 nM Ang II. The procedure:
Control is CNO application to cells with no M3q. Mean±SD % fluorescence change for 20 cells per group; an example photobleaching montage is inset. […] The cells were perfused with an extracellular solution containing (in mM): 130 NaCl, 5 CsCl, 1.2 MgCl2, 1.5 CaCl2), 8 Glucose, 10 HEPES (pH7.4). […] nitrendipine was added to the recording solution to block Ca^2+ flux through Cav channels. Patch pipettes with a resistance of 2.5-4 MQ are filled with a solution containing (in mM): 60 CsCl, 80 CsF, 2 MgCl2, 10 EGTA, 5 Na2ATP, 5 HEPES (pH 7.4). Currents were low pass (Bessel) filtered at 9 kHz and digitized at 50 kHz and were collected from cells with a series resistance <15 MQ; this was compensated by 70%.
The data are mean±sem for 4 cells per experiment.
Measure modulation in INa and ILATE by endogenous Gαq signaling. Like native cardiomyocytes, human iPS-CMs express AT1 receptors. Here, the effects of Ang II (Tocris) on Nav1.5 channel function in iPS-CMs is tested using four whole-cell patch-clamp recording protocols. Recording solutions and amplifier settings are described in the legend of FIG. 2: • i) I-V (and G-V): The current-voltage (I-V) relationship reports on current-density across the physiological voltage range and provides a conductance voltage (G-V) relationship that is normalized and fitted with a Boltzmann function to illustrate the voltage-dependence of activation, V½ACT. • ii) SSI: a paired-pulse protocol to determine the voltage-dependence of steady-state inactivation (SSI). The prepulse is incrementally depolarized while the test-pulse remains at a fixed amplitude. […] This parameter is studied using paired steps to −30 mV and incrementally increasing the duration between the pulses. • iv) ILATE is studied using 400 ms depolarizing pulses to −20 mV. The pulse is repeated every 10 seconds for the duration of a time-course study. Subsequently, the cell is exposed to the state-dependent, late-current blocker ranolazine at 1 μM, as previously described. The magnitude of ILATE represents the mean current 150-200 ms after peak INa and is expressed as a percentage of peak INa, following ranolazine subtraction. The time course of a change in ILATE and the change in the time constant of fast inactivation are evaluated.
In each case, Nav1.5 currents is studied before and after the administration of Ang II. […] Next, we study the concentration-dependence of these effects, spanning the pathophysiological range (20-200 nM). Utilizing a non-saturating concentration of Ang II, we introduce pharmacological tools to determine the effects on Nav1.5 function attributable to PIP2 hydrolysis. […] Subsequently, we block PIP2 hydrolysis using the PLCβ inhibitor, U73122 (5 μM, Tocris Biosciences). […] We test if downstream products of PIP2 hydrolysis alter Nav1.5 currents using the PKC inhibitor staurosporine (1 μM, 1-hour preincubation, Sigma-Aldrich) and the Ca^2+ chelator, BAPTA (10 mM in the pipette, Sigma-Aldrich).
(The patch-clamp technique gives a direct electrical read-out from membranes.)

Assay [2] deals with T1, Nav1.5 channel currents (INa, ILATE) in M3q iPS-CMs (Homo sapiens, UniProt Q14524).
T1 construct: host or cells: human iCell^2 iPS cardiomyocytes (transfected with M3q DREADD in A5; endogenous AT1 receptor in A7)
T1 sequence (Q14524 whole entry): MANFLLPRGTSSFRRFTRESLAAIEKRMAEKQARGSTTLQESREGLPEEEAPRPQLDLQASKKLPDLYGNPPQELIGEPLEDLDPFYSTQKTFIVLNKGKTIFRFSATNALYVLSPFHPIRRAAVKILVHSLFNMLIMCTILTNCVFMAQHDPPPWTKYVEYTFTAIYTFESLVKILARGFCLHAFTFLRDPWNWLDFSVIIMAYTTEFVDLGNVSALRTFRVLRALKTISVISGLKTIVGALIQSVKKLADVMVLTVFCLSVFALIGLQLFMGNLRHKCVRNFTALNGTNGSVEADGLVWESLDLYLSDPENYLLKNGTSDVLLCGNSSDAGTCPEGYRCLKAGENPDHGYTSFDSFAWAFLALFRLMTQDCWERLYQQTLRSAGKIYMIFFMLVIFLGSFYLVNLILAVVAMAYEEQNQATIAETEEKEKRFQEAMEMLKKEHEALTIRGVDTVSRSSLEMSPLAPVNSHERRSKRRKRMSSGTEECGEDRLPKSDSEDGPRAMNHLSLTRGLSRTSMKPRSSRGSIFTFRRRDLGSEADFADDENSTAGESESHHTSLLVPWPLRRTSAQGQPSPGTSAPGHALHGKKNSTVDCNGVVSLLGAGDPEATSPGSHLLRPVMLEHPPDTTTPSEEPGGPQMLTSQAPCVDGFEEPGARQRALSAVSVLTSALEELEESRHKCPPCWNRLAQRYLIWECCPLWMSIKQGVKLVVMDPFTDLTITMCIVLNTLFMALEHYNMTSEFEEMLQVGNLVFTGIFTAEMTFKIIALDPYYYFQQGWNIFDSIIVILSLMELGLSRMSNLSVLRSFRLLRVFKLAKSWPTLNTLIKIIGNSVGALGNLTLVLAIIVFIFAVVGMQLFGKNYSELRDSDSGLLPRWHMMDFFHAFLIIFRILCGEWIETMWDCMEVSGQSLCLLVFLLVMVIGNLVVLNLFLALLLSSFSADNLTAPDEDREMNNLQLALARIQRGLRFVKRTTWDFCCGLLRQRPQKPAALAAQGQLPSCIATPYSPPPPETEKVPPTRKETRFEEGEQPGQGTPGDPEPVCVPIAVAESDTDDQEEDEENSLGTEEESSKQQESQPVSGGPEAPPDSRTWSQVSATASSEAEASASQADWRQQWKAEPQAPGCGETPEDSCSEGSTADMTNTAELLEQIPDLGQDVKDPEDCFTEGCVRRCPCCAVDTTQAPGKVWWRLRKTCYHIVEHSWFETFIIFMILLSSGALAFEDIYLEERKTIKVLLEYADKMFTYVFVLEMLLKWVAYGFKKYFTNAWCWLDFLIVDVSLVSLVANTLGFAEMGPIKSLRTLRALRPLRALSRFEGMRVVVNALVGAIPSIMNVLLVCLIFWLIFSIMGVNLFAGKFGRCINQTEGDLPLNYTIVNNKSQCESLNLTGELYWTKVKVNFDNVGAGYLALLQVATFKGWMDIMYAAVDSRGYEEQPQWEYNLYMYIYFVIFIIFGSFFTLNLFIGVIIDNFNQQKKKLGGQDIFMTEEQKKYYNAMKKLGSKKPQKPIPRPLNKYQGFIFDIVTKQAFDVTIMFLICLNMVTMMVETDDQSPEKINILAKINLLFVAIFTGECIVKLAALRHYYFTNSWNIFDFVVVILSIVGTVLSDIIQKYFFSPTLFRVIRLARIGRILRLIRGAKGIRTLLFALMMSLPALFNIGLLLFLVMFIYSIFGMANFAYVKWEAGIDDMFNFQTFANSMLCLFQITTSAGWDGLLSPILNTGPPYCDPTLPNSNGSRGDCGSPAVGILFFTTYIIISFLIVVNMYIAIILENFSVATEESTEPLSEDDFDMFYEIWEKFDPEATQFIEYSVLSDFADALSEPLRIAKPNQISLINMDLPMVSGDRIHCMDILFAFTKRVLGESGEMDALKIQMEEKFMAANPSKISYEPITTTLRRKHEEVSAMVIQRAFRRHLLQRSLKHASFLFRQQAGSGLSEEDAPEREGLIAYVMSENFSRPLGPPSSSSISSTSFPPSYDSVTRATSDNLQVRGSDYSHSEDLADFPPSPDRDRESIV
The assay can be described thus: Whole-cell patch-clamp of INa and ILATE in M3q-DREADD iPS-CMs activated with CNO. It counts as cell-based. The following applies: for effect on CNO-evoked increase in ILATE / effect on CNO-evoked leftwards shifts in V½ACT and V½SSI: 200 μM diC8-PIP2 in pipette; for effect on CNO (M3q activation) effects on V½ACT, V½SSI and ILATE: staurosporine 1 μM 1-hour preincubation, BAPTA 10 mM in pipette, U73122 5 μM, diC8-PIP2 200 μM in pipette. The procedure:
(§1) Control is CNO application to cells with no M3q. Mean±SD % fluorescence change for 20 cells per group; an example photobleaching montage is inset. […] Leftwards shifts in each parameter are precluded by U73122 or by 200 μM diC8-PIP2 in the pipette but are not sensitive to staurosporine or BAPTA. The cells were perfused with an extracellular solution containing (in mM): 130 NaCl, 5 CsCl, 1.2 MgCl2, 1.5 CaCl2), 8 Glucose, 10 HEPES (pH7.4). […] nitrendipine was added to the recording solution to block Ca^2+ flux through Cav channels. Patch pipettes with a resistance of 2.5-4 MQ are filled with a solution containing (in mM): 60 CsCl, 80 CsF, 2 MgCl2, 10 EGTA, 5 Na2ATP, 5 HEPES (pH 7.4). Currents were low pass (Bessel) filtered at 9 kHz and digitized at 50 kHz and were collected from cells with a series resistance <15 MQ; this was compensated by 70%.
Results. Studies are designed to evaluate if hydrolysis of PIP2 modulates Nav1.5 channel currents in cardiomyocytes. To perform these experiments, we used human iPS cardiomyocytes (iCell^2 iPS-CMs) from Fuji-Film Cellular Dynamics. These iPS-CMs are a valuable model system for human cardiomyocytes that retain many of the key characteristics of the native cells. Here, we transfected the iPS-CMs to express the Gαq-coupled M3q Designer Receptors Exclusively Activated by Designer Drugs (DREADD) receptor. We use a magnetic transfection system from Oz Biosciences that we have previously employed with cardiomyocytes. First, we tested the efficacy of M3q to hydrolyze PIP2 in our model system. To accomplish this, we studied uncoupling of the PIP2 biosensor iRFP-PHPLCδ1 from the plasma membrane in response to chemogenic activation of M3q by 100 nM clozapine N-oxide (CNO, Tocris Biosciences).
These findings are consistent with our prior observations and the work using optogenetically activated PI-phosphatases to deplete PIP2 in HEK293 cells […] Xenopus laevis oocytes. […] Having established a time frame for PIP2 hydrolysis in our system, we used whole-cell patch-clamp to study INa in paired experiments, before and after chemogenic activation of M3q. Applying 100 nM CNO evoked a leftward shift in the current-voltage (I-V) relationship of INa such that peak INa shifted from −25 to −35 mV. At −35 mV, the peak current-density increased from −220±5 pA/pF to −266±4 pA/pF at −35 mV (n=8, P<0.001, paired Student's t-test). […] However, in contrast to our findings with Nav1.4, activating M3q signaling also left-shifted the steady state inactivation curve of Nav1.5 (V½SSI), from −81.4±2 to −89.7±2 mV (n=8, P<0.01, paired t-test; FIGS. 2C, 2D). These studies indicate that Nav1.5 channels are regulated by hydrolysis of PIP2 and that there are distinctions between PIP2 regulation of Nav1.5 and Nav1.4.
Next, we studied the effect of M3q-activation on ILATE by recording currents evoked by a 400 ms depolarizing pulse to −20 mV before and during receptor activation. The magnitude of ILATE represents the mean current 150-200 ms after peak INa and is expressed as a percentage of peak INa. […] The effects of M3q activation on V½ACT, V½SSI, and the development of ILATE were not affected by staurosporine (1 μM, 1-hour preincubation) or BAPTA (10 mM in the recording pipette), making a role for IP3 or DAG unlikely. […] Similar data were obtained for Nav1.5 expressed with Navβ1 and the M3q-DREADD receptor in HEK293T cells. This experiment validates that the findings are not restricted to a particular model system or cellular environment.
Measure modulation in INa and ILATE by endogenous Gαq signaling. Like native cardiomyocytes, human iPS-CMs express AT1 receptors. Here, the effects of Ang II (Tocris) on Nav1.5 channel function in iPS-CMs is tested using four whole-cell patch-clamp recording protocols. […]

Assay [3] concerns PIP2 hydrolysis (iRFP-PHPLCδ1 biosensor). The assay can be described thus: TIRFM uncoupling of PIP2 biosensor iRFP-PHPLCδ1 from the membrane of M3q iPS-CMs. It counts as cell-based, human. Conditions: 100 nM CNO. The procedure:
as §1
Results. Studies are designed to evaluate if hydrolysis of PIP2 modulates Nav1.5 channel currents in cardiomyocytes. To perform these experiments, we used human iPS cardiomyocytes (iCell^2 iPS-CMs) from Fuji-Film Cellular Dynamics. These iPS-CMs are a valuable model system for human cardiomyocytes that retain many of the key characteristics of the native cells. Here, we transfected the iPS-CMs to express the Gαq-coupled M3q Designer Receptors Exclusively Activated by Designer Drugs (DREADD) receptor. […]

“Also recorded” adds a separate entry of the source. Some results are limits rather than exact numbers.

Consider five compounds from patent US20240358727A1, “MICROSCALE THERMOPHORESIS TO EVALUATE CHANNEL LIPID INTERACTIONS AND METHODS OF TREATING NAV CHANNELS RELATED DISEASES” (Northeastern University, priority 2023, published 2024).

Consider “angiotensin II (DRVYIHPF; Angiotensin-2; UniProt P01019 25-32, looked up) [Ang II, agonist of the Gαq-coupled AT1 receptor (Tocris)]”, for which, in assay [1], the “leftward shift in V½ACT” value is given as −7 mV, the “leftward shift in V½SSI” value is given as −7 mV, the “peak INa” value is on record as “increased; also recorded: elevated” and the “time over which ILATE increased” value was around 250 s. Moreover, the ILATE in assay [1] (before 0.15±0.1) is 3.6±0.3 % of IPEAK.

On to `CN[C@@H]1C[C@H]2O[C@@](C)([C@@H]1OC)n1c3ccccc3c3c4c(c5c6ccccc6n2c5c31)C(=O)NC4` [staurosporine], for which, in assay [2] (100 nM CNO), the “effect on CNO-evoked increase in ILATE” value is listed as “not sensitive”; the “effect on CNO-evoked leftwards shifts in V½ACT and V½SSI” value (from here on “effect on CNO-evoked leftwards shifts”) was “not sensitive”; the “effect on CNO (M3q activation) effects on V½ACT, V½SSI and ILATE” value (“effect on CNO (M3q activation) effects” below) is given as “not affected; also recorded: not blocked”.

As for `O=C(O)CN(CC(=O)O)c1ccccc1OCCOc1ccccc1N(CC(=O)O)CC(=O)O` [BAPTA], in assay [2] (100 nM CNO), the “effect on CNO-evoked increase in ILATE” value is recorded as “not sensitive”; the “effect on CNO-evoked leftwards shifts” value was “not sensitive”; the “effect on CNO (M3q activation) effects” value is reported as “not affected; also recorded: not blocked”.

`COc1ccc2c(c1)CC[C@@H]1[C@@H]2CC[C@]2(C)[C@@H](NCCCCCCN3C(=O)C=CC3=O)CC[C@@H]12` [U73122]: the “uncoupling of iRFP-PHPLCδ1 after M3q activation” value in assay [3] (U73122 5 μM) is given as “does not occur”. In addition, in assay [2] (100 nM CNO), the “effect on CNO-evoked increase in ILATE” value is given as “precluded”; the “effect on CNO-evoked leftwards shifts” value is listed as “precluded”; the “effect on CNO (M3q activation) effects” value was “blocked; also recorded: abolished”.

With `C[N+]1([O-])CCN(C2=Nc3cc(Cl)ccc3Nc3ccccc32)CC1` [CNO, clozapine N-oxide], the “time to complete uncoupling of iRFP-PHPLCδ1 from the membrane” value in assay [3] is reported as at most 200 s. Also, the “fold increase in ILATE” value in assay [2] (100 nM CNO vs control) is given as 16 fold. In addition, the ILATE in assay [2] (100 nM CNO, 400 ms pulse to −20 mV, control 0.22%) is ~3.9 % of peak INa. In assay [2] (100 nM CNO, at −35 mV, before −220±5), this compound gave a peak current-density of −266±4 pA/pF. In addition, the “leftward shift in V½ACT” value in assay [2] (100 nM CNO, paired before/after) is given as −10±5 mV. Further, in assay [2] (100 nM CNO, before CNO −25 mV), the “voltage of peak INa (I-V relationship)” value was −35 mV. The compound further came in with a V½SSI in assay [2] (100 nM CNO, before −81.4±2) of −89.7±2 mV.
